Entries after “also recorded” stand apart in the source; their conditions may differ. Read-outs that look alike come from different tables or passages of the source.
Legend:
[1] = tested on: patients with heart failure with reduced ejection fraction
From the text: The primary outcome was a composite of the time to a heart failure event or cardiovascular death, whichever occurred first. A heart failure event was defined as an urgent clinic visit, emergency department visit or hospitalization for subjectively and objectively worsening heart failure leading to treatment intensification beyond changed oral diuretic therapy. Secondary outcomes were: the time to cardiovascular death; change in KCCQ Total Symptom Score (TSS) from baseline to Week 24 (scale from 0 to 100; higher score indicates fewer symptoms); time to first heart failure hospitalization; and time to all-cause death. All deaths, HF events, major cardiac ischemic events (myocardial infarction/unstable angina hospitalization, and coronary revascularization), and strokes were adjudicated by a blinded external Clinical Events Committee (Duke Clinical Research Institute) using standardized definitions.

[2] = Effect of food on OM systemic exposure; type: in vivo, human; details: healthy subjects; result in words
[3] = Clinical pharmacokinetics: distribution and elimination; details: human, in vivo
From the text: The volume of distribution at steady state was approximately 4.8-6.6 L/kg.
(§1) Clearance of OM after oral administration was primarily through metabolism in the liver. […] Following oral administration of radiolabeled OM to healthy subjects, approximately 49% of the dose was excreted in urine (primarily as metabolites with 8% of parent compound recovered) and 38% in feces (primarily as unchanged drug).

[4] = Pharmacokinetics in patients with hepatic impairment; type: in vivo, human; details: single dose 25 mg; mild (Child-Pugh A) or moderate (Child-Pugh B) hepatic impairment; result in words
Description: The pharmacokinetics of a single dose of OM 25 mg were evaluated in patients with mild (Child-Pugh A) or moderate (Child-Pugh B) hepatic impairment. The pharmacokinetics (Cmax and AUC) of OM in patients with mild or moderate hepatic impairment were similar to those in patients with normal hepatic function.

CYP2D6 = CYP2D6 (Homo sapiens, UniProt P10635); test: Metabolism of OM by CYP enzymes; type: in vitro ADME; details: result in words; listed as OM
From the text: as §1

CYP3A4 [5] = molecular target: CYP3A4 (Homo sapiens, UniProt P08684); test: Metabolism of OM by CYP enzymes; type: in vitro ADME; details: result in words
From the text: as §1

P-gp = P-gp (Homo sapiens, UniProt P08183); test: Transporter substrate assessment; type: in vitro ADME; details: result in words
MATE 2-K = MATE 2-K (Homo sapiens, UniProt Q86VL8); test: In vitro inhibition by OM; type: in vitro ADME; details: result in words
CYP3A4 [6] = test: In vitro induction by OM; type: in vitro ADME; details: result in words
From the text: (§2) OM may be administered with drugs that are substrates of CYP3A4, CYP2C8, P-gp or BCRP.

BCRP = molecular target: T1, BCRP (Homo sapiens, UniProt Q9UNQ0); test: Clinical studies and physiologically based pharmacokinetic modeling of OM as perpetrator; type: in vivo; parameters: from tissue; details: clinical studies and PBPK modeling; result in words
T1 sequence (Q9UNQ0 1-655): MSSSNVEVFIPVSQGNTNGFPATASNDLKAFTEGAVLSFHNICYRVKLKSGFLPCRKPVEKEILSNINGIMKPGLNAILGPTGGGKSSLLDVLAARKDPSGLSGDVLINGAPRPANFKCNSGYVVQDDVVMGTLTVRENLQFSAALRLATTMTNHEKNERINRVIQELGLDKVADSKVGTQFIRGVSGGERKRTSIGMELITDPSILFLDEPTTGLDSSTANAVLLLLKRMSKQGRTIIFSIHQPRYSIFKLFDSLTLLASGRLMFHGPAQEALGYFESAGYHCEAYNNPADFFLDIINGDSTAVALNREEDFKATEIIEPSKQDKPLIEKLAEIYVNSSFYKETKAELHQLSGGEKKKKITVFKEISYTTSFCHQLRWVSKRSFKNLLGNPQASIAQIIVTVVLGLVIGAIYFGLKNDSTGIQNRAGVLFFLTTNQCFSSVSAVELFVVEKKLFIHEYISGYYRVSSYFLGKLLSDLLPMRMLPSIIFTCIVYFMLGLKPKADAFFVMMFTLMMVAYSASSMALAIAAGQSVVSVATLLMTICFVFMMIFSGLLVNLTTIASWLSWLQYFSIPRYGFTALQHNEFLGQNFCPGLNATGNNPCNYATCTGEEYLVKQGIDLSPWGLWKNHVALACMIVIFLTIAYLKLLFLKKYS
From the text: as §2

CYP3A4 (Homo sapiens, UniProt P08684), sequence (P08684 whole entry): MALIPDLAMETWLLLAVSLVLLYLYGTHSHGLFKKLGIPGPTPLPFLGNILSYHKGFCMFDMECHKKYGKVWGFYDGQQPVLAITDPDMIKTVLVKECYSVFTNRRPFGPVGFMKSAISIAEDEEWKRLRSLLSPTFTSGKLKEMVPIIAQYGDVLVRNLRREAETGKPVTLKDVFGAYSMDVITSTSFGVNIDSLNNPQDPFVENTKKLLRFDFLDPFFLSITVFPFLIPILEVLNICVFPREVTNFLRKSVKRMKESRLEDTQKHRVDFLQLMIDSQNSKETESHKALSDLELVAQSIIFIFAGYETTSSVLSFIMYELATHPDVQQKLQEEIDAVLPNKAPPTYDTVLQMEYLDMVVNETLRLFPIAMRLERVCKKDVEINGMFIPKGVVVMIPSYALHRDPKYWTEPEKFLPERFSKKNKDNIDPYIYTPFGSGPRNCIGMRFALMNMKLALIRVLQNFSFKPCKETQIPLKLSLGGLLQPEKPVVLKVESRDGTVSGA
CYP2D6, sequence (P10635 whole entry): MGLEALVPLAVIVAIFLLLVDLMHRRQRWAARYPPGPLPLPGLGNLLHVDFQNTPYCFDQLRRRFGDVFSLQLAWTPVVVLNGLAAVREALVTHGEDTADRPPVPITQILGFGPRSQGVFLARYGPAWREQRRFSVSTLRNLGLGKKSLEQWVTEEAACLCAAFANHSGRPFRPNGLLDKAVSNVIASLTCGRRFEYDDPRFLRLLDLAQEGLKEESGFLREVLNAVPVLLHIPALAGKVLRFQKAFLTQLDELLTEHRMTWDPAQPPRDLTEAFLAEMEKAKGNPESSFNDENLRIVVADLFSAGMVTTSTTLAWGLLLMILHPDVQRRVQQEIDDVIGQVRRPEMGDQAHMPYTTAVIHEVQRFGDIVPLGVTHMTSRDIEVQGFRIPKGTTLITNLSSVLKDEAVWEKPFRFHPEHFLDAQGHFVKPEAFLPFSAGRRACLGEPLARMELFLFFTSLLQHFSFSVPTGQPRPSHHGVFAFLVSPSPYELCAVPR
MATE 2-K, sequence (Q86VL8 1-566 isoform Q86VL8-3): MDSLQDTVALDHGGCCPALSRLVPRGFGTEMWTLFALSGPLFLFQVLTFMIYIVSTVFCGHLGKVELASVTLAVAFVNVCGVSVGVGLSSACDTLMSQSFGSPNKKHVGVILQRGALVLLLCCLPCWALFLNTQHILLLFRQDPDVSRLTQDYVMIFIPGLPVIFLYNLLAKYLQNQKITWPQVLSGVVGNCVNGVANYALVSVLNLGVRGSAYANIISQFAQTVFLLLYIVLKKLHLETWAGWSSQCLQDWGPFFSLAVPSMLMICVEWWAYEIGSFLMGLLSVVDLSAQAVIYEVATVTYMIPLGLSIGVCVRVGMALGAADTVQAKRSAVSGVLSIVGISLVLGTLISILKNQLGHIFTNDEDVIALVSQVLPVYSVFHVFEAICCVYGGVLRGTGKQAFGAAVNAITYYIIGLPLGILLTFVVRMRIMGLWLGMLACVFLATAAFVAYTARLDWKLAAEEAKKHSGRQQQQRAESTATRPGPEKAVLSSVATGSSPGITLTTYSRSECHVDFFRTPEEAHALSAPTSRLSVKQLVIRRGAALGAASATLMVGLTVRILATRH
P-gp, sequence (P08183 whole entry): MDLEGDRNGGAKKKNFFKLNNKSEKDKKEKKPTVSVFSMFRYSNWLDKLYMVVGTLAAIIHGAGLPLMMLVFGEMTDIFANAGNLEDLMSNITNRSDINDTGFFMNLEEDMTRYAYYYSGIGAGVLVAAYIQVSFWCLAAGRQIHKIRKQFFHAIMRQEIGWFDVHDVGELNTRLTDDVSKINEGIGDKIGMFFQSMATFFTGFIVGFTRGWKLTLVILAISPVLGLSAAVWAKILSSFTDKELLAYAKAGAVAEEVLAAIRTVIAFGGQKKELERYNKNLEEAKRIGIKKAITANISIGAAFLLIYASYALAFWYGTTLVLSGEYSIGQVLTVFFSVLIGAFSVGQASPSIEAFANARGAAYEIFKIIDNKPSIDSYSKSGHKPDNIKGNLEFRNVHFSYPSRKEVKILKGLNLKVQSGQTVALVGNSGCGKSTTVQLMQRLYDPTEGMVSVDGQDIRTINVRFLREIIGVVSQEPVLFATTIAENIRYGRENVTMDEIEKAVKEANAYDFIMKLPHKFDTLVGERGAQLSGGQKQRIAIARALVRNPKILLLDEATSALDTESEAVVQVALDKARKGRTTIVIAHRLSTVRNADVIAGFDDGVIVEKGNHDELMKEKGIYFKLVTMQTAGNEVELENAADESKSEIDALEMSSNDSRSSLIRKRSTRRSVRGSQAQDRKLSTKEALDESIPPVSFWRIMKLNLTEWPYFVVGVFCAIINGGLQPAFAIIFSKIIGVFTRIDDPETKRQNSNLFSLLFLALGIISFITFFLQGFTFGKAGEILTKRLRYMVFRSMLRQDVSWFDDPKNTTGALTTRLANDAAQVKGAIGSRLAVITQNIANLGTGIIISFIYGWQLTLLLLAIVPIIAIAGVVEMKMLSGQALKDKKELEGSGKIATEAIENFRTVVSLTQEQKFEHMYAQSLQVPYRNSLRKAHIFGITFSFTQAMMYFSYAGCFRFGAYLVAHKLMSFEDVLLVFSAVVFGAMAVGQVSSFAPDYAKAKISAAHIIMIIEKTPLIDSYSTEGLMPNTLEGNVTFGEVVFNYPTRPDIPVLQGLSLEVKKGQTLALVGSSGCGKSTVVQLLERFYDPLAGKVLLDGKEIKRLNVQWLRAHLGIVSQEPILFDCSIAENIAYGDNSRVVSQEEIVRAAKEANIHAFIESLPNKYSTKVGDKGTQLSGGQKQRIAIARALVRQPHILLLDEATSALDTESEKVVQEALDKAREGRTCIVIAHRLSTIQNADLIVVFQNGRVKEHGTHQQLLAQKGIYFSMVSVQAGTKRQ

In the case of `COC(=O)N1CCN(Cc2cccc(NC(=O)Nc3ccc(C)nc3)c2F)CC1` [omecamtiv mecarbil], the “Reduction in fatal stroke” value ([1]; all patients randomized) was 42%, the “Reduction in the risk of first fatal or non-fatal stroke” value ([1]; all patients randomized) was 35% and the “Adjudicated type of first stroke event: Hemorrhagic, %” value ([1]; in vivo) was 0.1%. The “Adjudicated type of first stroke event: Ischemic (Non-hemorrhagic), %” value ([1]; in vivo) was 1.6%, the “Adjudicated type of first stroke event: Undetermined, %” value ([1]; in vivo) was 0.1% and the “Adjudicated type of first stroke event: Ischemic with hemorrhagic transformation, %” value ([1]; n = 4110) was 0.1%. For the same molecule, the “New onset atrial fibrillation/flutter, hazard ratio” value ([1]; no AF/F at screening) was 0.70, the “New onset atrial fibrillation/flutter, hazard ratio” value ([1]; no history of AF/F) was 0.60 and the “Non-fatal and fatal stroke, hazard ratio” value ([1]; no history of atrial fibrillation) was 0.81. For the same molecule, the “Non-fatal and fatal stroke, hazard ratio” value ([1]; no history of stroke) was 0.78, the “Primary endpoint, hazard ratio” value ([1]; patients with a history of stroke, vs placebo) was 0.86 and the “Primary endpoint, hazard ratio” value ([1]; patients with no stroke, vs placebo) was 0.93. The “Time to first stroke event” value ([1]; result in words) was “significantly reduced”, the “Fatal stroke, hazard ratio” value ([1]; vs placebo) was 0.56 and the “Non-fatal and fatal stroke, hazard ratio” value ([1]; with history of atrial fibrillation) was 0.49. The “Non-fatal and fatal stroke, hazard ratio” value ([1]; with history of stroke) was 0.23, the “Effect of a high-fat, high-calorie meal on systemic exposure” value [2] was “no clinically significant effect” and the “Renal clearance as share of the systemic clearance” value [3] was “less than 10%”. It also gave a CL renal ([3]; oral, read-out: Mean renal clearance (converted)) of 16.7 mL/min, a clearance ([3]; oral, read-out: Total systemic clearance (converted)) of 195 mL/min and a half-life ([3]; patients with heart failure, read-out: Median half-life) of 1380 to 1920 min. The Vd ([3]; read-out: Volume of distribution at steady state) was 4.8 to 6.6 L/kg, the “Pharmacokinetics (Cmax and AUC) versus normal hepatic function” value [4] was “similar” and the “Metabolism by CYP2D6” value (CYP2D6) was “extensively metabolized; also recorded: metabolized in vitro”. For the same molecule, the “Metabolism by CYP3A4” value (CYP3A4 [5]) was “substrate”, the “Metabolism by CYP3A4” value (CYP3A4 [5]; listed as OM) was “extensively metabolized; also recorded: metabolized in vitro” and the “Substrate of P-gp” value (P-gp) was “substrate”. The “Inhibition of MATE 2-K” value (MATE 2-K) was “inhibitor”, the “Induction of CYP3A4” value (CYP3A4 [6]) was “inducer” and the “Inhibition of BCRP” value (BCRP) was “weak inhibitor”.

Source: US12194039B2, “Methods of treating heart failure by administering omecamtiv mecarbil” (Cytokinetics, Inc., priority 2020, dated 2025)
